Results reported in ChEMBL document CHEMBL3232977, “Medicinal chemistry optimization of antiplasmodial imidazopyridazine hits from high throughput screening of a SoftFocus kinase library: part 1” (J Med Chem, 2014).

Assays:
Plasmodium falciparum [1] = experiment: microbe, parasite or virus in culture; settings: K1
Description: Antimalarial activity against multidrug-resistant Plasmodium falciparum K1

Plasmodium falciparum [2] = experiment: microbe, parasite or virus in culture; settings: NF54
Description: Antimalarial activity against drug-sensitive Plasmodium falciparum NF54

physchem = settings: 0.01 M HCl, pH 2
Description: Solubility of the compound in 0.01M HCl at pH 2

Row | Structure (SMILES) | IC50 (Plasmodium falciparum [1]) [nM] | IC50 (Plasmodium falciparum [2]) [nM] | solubility (physchem) [µg/mL]
1 | c1cnc2c(-c3ccc4ncc(-c5ccncc5)n4n3)cccc2c1 | 1670 | 2150 | > 100
2 | CN(C)S(=O)(=O)c1ccc(-c2ccc3ncc(-c4ccc(S(=O)(=O)N(C)C)cc4)n3n2)cc1 | > 2060 | > 2060 | > 100
3 | CS(=O)(=O)c1ccc(-c2ccc3ncc(-c4ccc(S(C)(=O)=O)cc4)n3n2)cc1 | 753 | 706 | > 100
4 | CN(C)c1cccc(-c2ccc3ncc(-c4ccc(S(C)(=O)=O)cc4)n3n2)c1 | 107 | 117 | > 100
5 | CC(C)(C)NC(=O)c1ccc(F)c(-c2ccc3ncc(-c4ccc(S(C)(=O)=O)cc4)n3n2)c1 | 155 | 159 | > 100
6 | Clc1cccc(-c2ccc3ncc(-c4ccncc4)n3n2)c1 | 183 | 202 | > 100
7 | CS(=O)(=O)c1ccc(-c2cnc3ccc(-c4cccc(C#N)c4)nn23)cc1 | 96 | 107 | > 100
8 | CS(=O)(=O)c1ccc(-c2cnc3ccc(-c4cccc(C(=O)NS(=O)(=O)C5CC5)c4)nn23)cc1 | 11 | 14 | > 100
9 | C1=C(c2ccc3ncc(-c4ccncc4)n3n2)Cc2nonc2C1 | > 3180 | > 3180 | > 100
10 | CS(=O)(=O)c1ccc(-c2cnc3ccc(-c4ccc(C(F)(F)F)nc4)nn23)cc1 | 633 | 763 | > 100
11 | CC(C)(C)c1cccc(-c2ccc3ncc(-c4ccncc4)n3n2)c1 | 122 | 137 | > 100
12 | CS(=O)(=O)c1ccc(-c2ccc3ncc(-c4ccncc4)n3n2)cc1 | > 2850 | > 2850 | > 100
13 | CS(=O)(=O)c1ccc(-c2ccc3ncc(-c4cccnc4)n3n2)cc1 | > 2850 | > 2850 | > 100
14 | CS(=O)(=O)c1ccc(-c2cnc3ccc(-c4cccc(C(N)=O)c4)nn23)cc1 | 99 | 102 | > 100
15 | CS(=O)(=O)c1ccc(-c2cnc3ccc(-c4cccc(C(F)(F)F)c4)nn23)cc1 | 55 | 79 | > 100
16 | Fc1ccc(-c2ccc3ncc(-c4ccncc4)n3n2)cc1 | 138 | 186 | > 100
17 | c1cc(-c2ccc3ncc(-c4ccncc4)n3n2)c2ccncc2c1 | 192 | 223 | > 100
18 | FC(F)(F)c1ccc(-c2ccc3ncc(-c4ccncc4)n3n2)cn1 | 873 | 964 | > 100
19 | CS(=O)(=O)c1ccc(-c2cnc3ccc(-c4cc(C(=O)NC5CCCCC5)ccc4F)nn23)cc1 | > 2030 | > 2030 | > 100
20 | Fc1ccc(-c2ccc3ncc(-c4ccncc4)n3n2)cc1F | 415 | 496 | > 100
21 | CS(=O)(=O)c1ccc(-c2cnc3ccc(-c4cccc(S(=O)(=O)NCc5ccccc5)c4)nn23)cc1 | 3.3 | 3.5 | > 100
22 | COc1ccc(-c2ccc3ncc(-c4ccncc4)n3n2)cn1 | 412 | 603 | > 100
23 | NCc1cccc(-c2ccc3ncc(-c4ccncc4)n3n2)c1 | 588 | 289 | > 100
24 | CC(C)(C)OC(=O)NCc1cccc(-c2ccc3ncc(-c4ccncc4)n3n2)c1 | 97 | 95 | > 100
25 | N[S+]([O-])c1ccc(-c2ccc3ncc(-c4ccc([S+](N)[O-])cc4)n3n2)cc1 (stereo unspecified) | > 2330 | > 2330 | > 100
26 | FC(F)(F)Oc1cccc(-c2ccc3ncc(-c4ccncc4)n3n2)c1 | 118 | 146 | > 100
27 | CS(=O)(=O)c1ccc(-c2cnc3ccc(-c4ccc(C(F)(F)F)c(F)c4)nn23)cc1 | 315 | 393 | > 100
